Reference: patent US11987600B2, “Contraceptive use of triterpenoids” (The Regents of the University of California, priority 2017, dated 2024)

Experiments:
human sperm [1] = assay: Sperm hyperactivation: curvilinear velocity (VCL) of human sperm; type: cell-based; conditions: for change (increase) of VCL / reduction of VCL values in comparison to VCL in the presence of P4: capacitated spermatozoa; for change (increase) of VCL: compound alone; for decrease of VCL compared to sperm treated with PregS alone: capacitated sperm; for reduction of VCL values in comparison to VCL in the presence of P4: stimulated with P4 + compound
Source text: (§1) Pristimerin and lupeol decrease sperm hyperactivation in the presence of P4. Hyperactivated sperm motility is characterized by a highly asymmetrical bending of the sperm tail due to a CatSper-mediated rise in flagellar calcium concentration (15). Curvilinear velocity (VCL) is the average velocity of the sperm head through the sperm trajectory, which increases during capacitation. A CatSper-mediated calcium rise promotes hyperactivation and makes the sperm trajectory less linear, which results in an increase of VCL. Capacitation increases CatSper activity, which results in a higher percentage of sperm with hyperactivated motility. Thus, capacitated spermatozoa tend to have higher VCL values than non-capacitated. Since both P4 and PregS activate CatSper, while pristimerin and lupeol inhibit it, we explored whether VCL values of human sperm are affected in the presence of plant triterpenoids or steroid hormones. As expected, neither of the compounds changed VCL values of non-capacitated sperm cells. […] Stimulating capacitated sperm with PregS in combination with pristimerin or lupeol decreased VCL by 18% and 9%, respectively, compared to sperm, which were treated with PregS alone. […] Since CatSper is not only required for hyperactivation but also for basal motility, we sought to determine whether pristimerin and lupeol also affect sperm motility.

CatSper [2] = assay: Activity of steroids and modified steroids on CatSper activation (method not described); type: cell-based, human; conditions: for effect on CatSper activation: competing with progesterone; for activity relative to progesterone: effect of position 11 versus position 3 modification
CatSper [3] = assay: Electrophysiology recordings of inward monovalent currents through CatSper (ICatSper) of human sperm; type: cell-based; conditions: for reduction of ICatSper stimulation compared to stimulation with P4 alone: co-application with P4, human spermatozoa; for reduction of ICatSper stimulation compared to stimulation with PregS alone: co-application with PregS
Source text: 2-AG hydrolysis by monoacyl lipases, such as ABHD2, is required for CatSper activation. The plant triterpenoid pristimerin was reported to inhibit the activity of related monoacylglycerol lipase (MAGL) (9). […] To test this hypothesis, human spermatozoa were stimulated with pristimerin, followed by exposure to either a mixture of pristimerin and P4, or to a mixture of pristimerin and PregS. In these experiments we analyzed inward monovalent currents through CatSper (ICatSper) of human sperm. Electrophysiology recordings were performed as described in (14). […] Compared to stimulation with P4 or PregS alone, the ICatSper stimulation was reduced by 63% (pristimerin and P4) and by 48% (pristimerin and PregS) (7).
Another pharmacologically active plant triterpenoid, which affects sperm functions when orally administered to rats, is lupeol (8). Lupeol is similar in structure to steroid hormones. […] However, administration of lupeol with P4 or PregS led to an even stronger inhibition of ICatSper than pristimerin. Compared to CatSper stimulation elicited by P4 or PregS alone, CatSper currents were reduced by 71% and 68%, respectively, in combination with P4 or PregS (7).

human sperm [4] = assay: Sperm motility: number/percentage of motile spermatozoa; type: cell-based; conditions: for decrease of percentage of motile sperm: capacitated sperm
Source text: as §1

rats = conditions: orally administered to rats; cited from earlier work
[5] = PregS in combination with compound

In the case of “pregnenolone sulfate [PregS, reference compound]”, the “change (increase) of VCL” value (human sperm [1]) was “remained unchanged”.
With `C[C@]12CC[C@H]3[C@@H](CCC4=CC(=O)CC[C@@]43C)[C@@H]1CC[C@@H]2O` [testosterone] the “effect on CatSper activation” value (CatSper [2]) was “impair CatSper activation”.
With `COC(=O)[C@]1(C)CC[C@]2(C)CC[C@]3(C)C4=CC=C5C(=CC(=O)C(O)=C5C)[C@]4(C)CC[C@@]3(C)[C@@H]2C1` [pristimerin] the “reduction of ICatSper stimulation compared to stimulation with P4 alone” value (CatSper [3]) was 63%, the “reduction of ICatSper stimulation compared to stimulation with PregS alone” value (CatSper [3]; human spermatozoa) was 48% and the “decrease of VCL compared to sperm treated with PregS alone” value (human sperm [1]; [5]) was 18%. The “reduction of VCL values in comparison to VCL in the presence of P4” value (human sperm [1]) was 39% and the “decrease of percentage of motile sperm” value (human sperm [4]; P4 co-applied with compound) was 19%.
For `CC(=O)[C@H]1CC[C@H]2[C@@H]3CCC4=CC(=O)CC[C@]4(C)[C@H]3CC[C@]12C` [P4, progesterone, reference compound], the “change (increase) of VCL” value (human sperm [1]) was 12%.
With `CC#C[C@]1(O)CC[C@H]2[C@@H]3CCC4=CC(=O)CCC4=C3[C@@H](c3ccc(N(C)C)cc3)C[C@@]21C` [RU-486, mifepristione] the “activity relative to progesterone” value (CatSper [2]) was “inactive”.
For progesterone-11-biotin, the “activity relative to progesterone” value (CatSper [2]) was “inactive”.
In the case of estrogen, the “effect on CatSper activation” value (CatSper [2]) was “impair CatSper activation”.
For progesterone-3-biotin, the “activity relative to progesterone” value (CatSper [2]) was “as active as progesterone”.
With `C=C(C)[C@@H]1CC[C@]2(C)CC[C@]3(C)[C@H](CC[C@@H]4[C@@]5(C)CC[C@H](O)C(C)(C)[C@@H]5CC[C@]43C)[C@@H]12` [lupeol] the “reduction of ICatSper stimulation compared to stimulation with P4 alone” value (CatSper [3]) was 71%, the “reduction of ICatSper stimulation compared to stimulation with PregS alone” value (CatSper [3]; human spermatozoa) was 68% and the “effect on basal ICatSper” value (CatSper [3]; compound alone, human spermatozoa) was “did not affect basal ICatSper”. The “decrease of VCL compared to sperm treated with PregS alone” value (human sperm [1]; [5]) was 9%, the “change (increase) of VCL” value (human sperm [1]) was “remained unchanged” and the “reduction of VCL values in comparison to VCL in the presence of P4” value (human sperm [1]) was 48%. For the same molecule, the “change of VCL values” (human sperm [1]; non-capacitated sperm, PregS in combination with compound) was “remained unchanged”, the “change in number of motile spermatozoa” value (human sperm [4]; capacitated and non-capacitated, compound alone) was “remained unchanged” and the “reduction of motile sperm” value (human sperm [4]; capacitated or non-capacitated sperm, co-stimulation with PregS) was “did not result in a significant reduction”. The “decrease of percentage of motile sperm” value (human sperm [4]; P4 co-applied with compound) was 19%, the “change of percentage of motile sperm” value (human sperm [4]; non-capacitated cells, P4 co-applied with compound) was “did not change” and the antifertility properties (rats) was “antifertility properties”.
With progesterone-3-BSA the “activity relative to progesterone” value (CatSper [2]) was “as active as progesterone”.
For `C[C@]12CCC(=O)C=C1CC[C@@H]1[C@@H]2[C@@H](O)C[C@@]2(C)[C@H]1CC[C@]2(O)C(=O)CO` [cortisol], the “effect on CatSper activation” value (CatSper [2]) was “impair CatSper activation”.
In the case of progesterone-11-BSA, the “activity relative to progesterone” value (CatSper [2]) was “inactive”.
